This note sets out measurements from ChEMBL document CHEMBL1150233, “Circumdatin G, a new alkaloid from the fungus Aspergillus ochraceus” (J Nat Prod, 2001).

Usually IC50 stands for the point on the concentration scale where inhibition reaches its midpoint. Higher therefore signals lower potency.

A short description of this assay: Inhibition of HCV protease. Also noted: species or system Hepacivirus hominis.
As to `O=C1C=C2C(=CCOC2O)O1` (stereo not drawn) [PATULIN], the IC50 came to 24.7 µM. In the case of `CC1Cc2cccc(O)c2C(=O)O1` (stereo not drawn) [MELLEIN], the IC50 stood at 35 µM. In turn, `CCCC(=O)c1cc2c(c(O)c1C)C(=O)C(=O)c1c(O)cccc1-2` had an IC50 of 7.7 µM.
